Laboratory results from PMC11284790, “Targeting Myeloperoxidase Ameliorates Gouty Arthritis: A Virtual Screening Success Story” (Journal of Medicinal Chemistry, 2024).
Like-named read-outs stand apart in the source and are kept apart here.

Legend:
[1] = test system: PARP1 in RPE1-hTERT cells; assay: PARP1 off-target assay: H2O2-induced ADP-ribosylation; format: cell-based; details: RL6 1, 10 and 50 μM; olaparib 10 μM; 600 μM H2O2 for 10 min
Method: After 1 h of pretreatment, the cells were treated with 600 μM H2O2 (Sigma) in PBS for 10 min at 37 °C. Cells were lysed in preheated Laemmli buffer devoid of beta-mercaptoethanol and bromophenol blue, and the lysates were boiled for 15 min. Protein concentration was determined using a BCA protein quantification kit (Pierce) and normalized. Beta-mercaptoethanol and bromophenol blue were then added, and the lysates were boiled again for 15 min. Proteins were separated in a 10% SDS-PAGE gel and then transferred to nitrocellulose membranes (Bio-Rad). […] Membranes were incubated with ECL Prime (Amersham), and the signals were detected using a Chemidoc MP Imaging System (Bio-Rad). […] Signals were quantified using ImageJ software.
(C) ADP-ribosylation in RPE1-hTERT cells was
triggered by H2O2 (600 µM) for 10 min. (D) Gel densitometry quantified by ImageJ
software, n=3. A concentration of 0.1% DMSO was used.

hTERT-RPE1 cells = assay: Cell viability assay (XTT); format: cell-based; details: 2-50 μM, 72 h
Method: hTERT-RPE1 cells were seeded in 24-well plates at 2 × 10^4 cells per well. After 24 h, cells were treated with 2, 5, 10, 25, or 50 μM RL6, RL7, or PTU in a culture medium (DMEM/F-12 with HEPES and 10% FBS). DMSO was added to untreated cells at 0.42% concentration as a vehicle control. After 72 h of treatment, cells were washed with PBS and left in 200 μL of XTT working solution for 3 h. The working solution was prepared according to manufacturer’s instructions but diluted eightfold in PBS. The supernatant was transferred to a 96-well plate; absorbance was read at 450 and 750 nm in a Synergy (Biotek, Winooski, VE, USA) plate reader and presented as percentage of control.
Figure S5. Evaluation of cytotoxicity by XTT. hTERT-RPE1 cells were seeded in 24-
well plates at 2 × 10^4 cells per well. 24h later, cells were treated with RL6, RL7 or PTU
(2, 5, 10, 25, 50 µM) in culture medium (DMEM/F-12 with HEPES and 10% FBS).
Viable cells were assessed 72h after treatments by measuring absorbance of the
supernatant at 450 and 750 nm and are presented as percentage of control (0.42%
DMSO). Data are mean ± SEM of three independent experiments.

Human leukocyte MPO [2] = target: T1, Human leukocyte MPO (Homo sapiens, UniProt P05164); assay: Reversibility test (residual peroxidase activity after 200-fold dilution); format: biochemical; design: Human leukocyte MPO (EC 1.7.1.11) was purchased from Planta Natural Products; purchased Planta Natural Products (Vienna, Austria); host or cells: human leukocytes; details: 100 nM MPO, 20 μM inhibitor, 30 min, then 200-fold dilution
Method: Reversibility of the inhibition was analyzed by peroxidase residual activity.[77] […] After incubation, the system was diluted 200-fold using acetate buffer ([…], pH 5.4) in the presence of TMB (2 mM dissolved in 10% dimethylformamide). After a new hydrogen peroxide addition (2 μM), the oxidation of TMB was quantified at 655 nm.

Human leukocyte MPO [3] = target: T1, Human leukocyte MPO; assay: MPO peroxidatic activity assay (AmplexRed oxidation); format: biochemical; design: Human leukocyte MPO (EC 1.7.1.11) was purchased from Planta Natural Products; purchased Planta Natural Products (Vienna, Austria); host or cells: human leukocytes
Method: MPO peroxidase activity was kinetically monitored using the artificial peroxidase substrate AmplexRed, which is oxidized to resorufin and can be detected by fluorescence.[34] Reactions were carried out in phosphate buffer (50 mM, pH 7.4), MPO (100 pM), cetyltrimethylammonium chloride (0.03%), diethylenetriaminepentaacetic acid (100 μM), AmplexRed (30 μM), and compounds (20 μM in 0.3% DMSO). The reaction was started by adding 2 μM hydrogen peroxide. The reaction product was assessed by fluorescence at λex = 530 and λem = 580 nm. The initial velocity was calculated by the slope of the linear regression in the first minutes of reaction. Inhibition is represented as a percentage of the control (vehicle).

[4] = Taurine chloroamine scavenger assay; details: 15 min at 37 °C, TMB readout
Method: Taurine chloramine was prepared by mixing hypochlorous acid (2.81 mM) with taurine (5 mM), cetyltrimethylammonium chloride (0.03%), NaCl (140 mM), and diethylenetriaminepentaacetic acid (100 μM) in phosphate buffer (20 mM, pH 7.4). The system was kept at 37 °C for 5 min for complete chloramine taurine formation. The compounds were added to this mixture and incubated for 15 min at 37 °C. Taurine chloramine was quantified by the oxidation of TMB (2 mM) catalyzed by iodide (100 μM).[33]

[5] = Stopped-flow reaction of compound with HOCl (fluorescence decay); details: 20 μM compound, 250 μM HOCl, up to 1 s
Method: The fast oxidation of RL7 was monitored in a stopped-flow spectrophotometer (Applied Photophysics SX20) using the intrinsic RL7 fluorescence (λex = 306 nm and λem = above 340 nm). The reaction of RL7 (20 μM in 0.3% DMSO) with HOCl (250 μM) was performed in phosphate buffer (20 mM, pH 7.4), diethylenetriaminepentaacetic acid (100 μM), and NaCl (140 mM). Data were obtained within 1 s.

T1 sequence (P05164 279-745 limits assumed): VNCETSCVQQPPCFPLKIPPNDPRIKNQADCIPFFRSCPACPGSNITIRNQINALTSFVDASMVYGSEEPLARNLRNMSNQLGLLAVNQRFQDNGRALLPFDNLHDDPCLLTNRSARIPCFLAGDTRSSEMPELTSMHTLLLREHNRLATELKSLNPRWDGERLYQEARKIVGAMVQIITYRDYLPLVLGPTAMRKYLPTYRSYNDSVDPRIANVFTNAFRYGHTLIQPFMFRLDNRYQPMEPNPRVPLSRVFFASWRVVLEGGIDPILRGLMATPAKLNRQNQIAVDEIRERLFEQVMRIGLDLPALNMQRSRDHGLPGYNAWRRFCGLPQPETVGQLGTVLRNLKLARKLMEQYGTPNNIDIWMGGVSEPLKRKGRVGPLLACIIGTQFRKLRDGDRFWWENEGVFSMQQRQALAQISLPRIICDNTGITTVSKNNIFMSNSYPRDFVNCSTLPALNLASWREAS
T1 sequence (P05164 165-278 limits assumed): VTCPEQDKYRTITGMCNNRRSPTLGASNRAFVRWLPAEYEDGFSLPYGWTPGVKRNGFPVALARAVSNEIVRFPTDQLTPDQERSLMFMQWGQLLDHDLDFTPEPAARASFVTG

Structure (SMILES)	inhibition of H2O2-induced ADP-ribosylation [1]	cytotoxicity to hTERT-RPE1 cells (hTERT-RPE1 cells)	reversibility of MPO inhibition (residual peroxidase activity) (Human leukocyte MPO [2])	inhibition at 20 µM (Human leukocyte MPO [3]; 20 μM compound, 100 pM MPO, 30 μM AmplexRed, 2 μM H2O2, pH 7.4, read-out: % Inhibition (at 20 μM) Peroxidatic)	inhibition at 20 µM (Human leukocyte MPO [3]; supplementary csv copy of Table 1, read-out: % Inhibition (Peroxidatic))	scavenger activity toward taurine chloramine [4]	% Inhibition (at 20 μM) Peroxidatic (Human leukocyte MPO [3]; 20 μM compound, 100 pM MPO, 30 μM AmplexRed, 2 μM H2O2, pH 7.4)	% Inhibition (Peroxidatic) (Human leukocyte MPO [3]; supplementary csv copy of Table 1)	reaction with HOCl (fluorescence decay) [5]
Nc1cc2c3c(cccc3c1)C(=O)N(N)C2=O [RL6]	failed to inhibit	no cytotoxicity	reversible inhibition	73 ± 13.4%	73 ± 13.4%	did not scavenge taurine chloramine	–	–	–
CN1CCc2nc3sc(C(=O)Nc4cccc(C#N)c4)c(N)c3cc2C1 [RL7]	–	highly cytotoxic at 50 μM	–	–	–	did not scavenge the milder oxidant taurine chloroamine	INACTIVE	INACTIVE	rapidly reacts with HOCl
